Assay [1] concerns Pseudotyped HCV GT1b particles (HCVpp), entry into Huh7-high CD81 cells. Put plainly: microbe, parasite or virus in culture. Format: cell-based, HCV GT1b Con1 strain. The note with it: Hepatitis C virus, GT1B, 72 h, read-out: HCVpp GT-1b (EC50, μM).
Assay [2] concerns pseudotyped VSV G particles (VSVpp) in Huh7-high CD81 cells. In words: microbe, parasite or virus in culture. Format: cell-based, vesicular stomatitis virus. The conditions noted are these: Vesicular stomatitis virus, 72 h, read-out: VSVpp (EC50, μM).

A value given as a limit tells only on which side of the number the result lay.

32 compounds from patent US9693997B2, “Antiviral compounds” (priority 2013, dated 2017) can be followed below.

One may read the EC50 as the concentration at which the effect is half-maximal. With `Nc1nc(Nc2cc(Cl)c(-c3ccc(NC(=O)C4CCC(F)(F)CC4)cc3)c(C(F)(F)F)c2)n[nH]1` [Compound 235, 4,4-Difluorocyclohexanecarboxylic acid [4′-(5-amino-1H-[1,2,4]triazol-3-ylamino)-2′-chloro-6′-trifluoromethyl-biphenyl-4-yl]-amide], the EC50 in assay [1] was 0.012 µM; in assay [2] it was above 10 µM.

As to `CC(C)(C)N1CC(OC(=O)Nc2ccc(-c3c(Cl)cc(Nc4n[nH]c(N)n4)cc3C(F)(F)F)cc2)C1` [Compound 236, [4′-(5-amino-1H-[1,2,4]triazol-3-ylamino)-2′-chloro-6′-trifluoromethyl-biphenyl-4-yl]-carbamic acid 1-tert-butyl-azetidin-3-yl ester], the EC50 in assay [1] is 0.045 µM; in assay [2], above 10 µM.

Regarding `CCCOC(=O)Nc1ccc(-c2c(Cl)cc(Nc3n[nH]c(N)n3)cc2C(F)(F)F)cc1` [Compound 237, [4′-(5-amino-1H-[1,2,4]triazol-3-ylamino)-2′-chloro-6′-trifluoromethyl-biphenyl-4-yl]-carbamic acid propyl ester], the EC50 in assay [1] is 0.058 µM; in assay [2], 3.67 µM.

On to `Nc1nc(Nc2cc(Cl)c(-c3ccc(NC(=O)C4CCS(=O)(=O)CC4)cc3)c(C(F)(F)F)c2)n[nH]1` [Compound 239], for which the EC50 was 0.122 µM in assay [1] and above 10 µM in assay [2].

Regarding `Nc1nc(Nc2cc(Cl)c(-c3ccc(NC(=O)CN4CCOCC4)cc3)c(C(F)(F)F)c2)n[nH]1` [Compound 241, [4′-(5-amino-1H-[1,2,4]triazol-3-ylamino)-2′-chloro-6′-trifluoromethyl-biphenyl-4-yl]-2-morpholin-4-yl-acetamide], the results for the EC50 in assay [1] and in assay [2] were 0.123 µM and above 10 µM, respectively.

Regarding `CS(=O)(=O)Nc1cccc(-c2c(F)cc(Nc3nc(N)n[nH]3)cc2C(F)(F)F)c1` [Compound 243, N-[4′-(5-Amino-2H-[1,2,4]-triazol-3-ylamino)-6′-fluoro-2′-trifluoromethyl-biphenyl-3-yl]-methanesulfonamide], the EC50 was 0.213 µM in assay [1] and above 10 µM in assay [2].

For `Nc1n[nH]c(Nc2cc(F)c(-c3cccc(F)c3)c(C(F)(F)F)c2)n1` [Compound 244], the EC50 in assay [1] amounted to 0.689 µM; in assay [2], 33.4 µM.

In the case of `Nc1n[nH]c(Nc2cc(F)c(-c3ccc(F)cc3)c(C(F)(F)F)c2)n1` [Compound 245, N^5-[6,4′-Difluoro-2-trifluoromethylbiphenyl-4-yl]-1H-[1,2,4]-triazole-3,5-diamine], the figures for the EC50 in assay [1] and in assay [2] were 1.47 µM and 17.1 µM, respectively.

Turning to `Nc1n[nH]c(Nc2cc(F)c(-c3ccc(C(F)(F)F)cc3)c(C(F)(F)F)c2)n1` [Compound 246, N^5-[6-Fluoro-2,4′-bis-trifluoromethylbiphenyl-4-yl]-1H-[1,2,4]-triazole-3,5-diamine], the EC50 in assay [1] came out at 3.54 µM; in assay [2] it was 37.9 µM.

In the case of `Cc1ccc(-c2c(F)cc(Nc3nc(N)n[nH]3)cc2C(F)(F)F)cc1` [Compound 247, N^5-[6-Fluoro-4′-methyl-2-trifluoromethylbiphenyl-4-yl]-1H-[1,2,4]-triazole-3,5-diamine], the figures for the EC50 in assay [1] and in assay [2] were 1.7 µM and 10.7 µM, respectively.

Turning to `CNC(=O)c1cccc(-c2c(F)cc(Nc3nc(N)n[nH]3)cc2C(F)(F)F)c1` [Compound 248, 4′-(5-Amino-2H-[1,2,4]-triazol-3-ylamino)-6′-fluoro-2′-trifluoromethyl-biphenyl-43-carboxylic acid methylamide], the EC50 in assay [1] is 1.02 µM; in assay [2], above 10 µM.

Regarding `Nc1n[nH]c(Nc2cc(F)c(-c3ccc4ccccc4c3)c(C(F)(F)F)c2)n1` [Compound 249, N^5-(3-Fluoro-4-naphthalen-2-yl-5-trifluoromethylphenyl)-1H-[1,2,4]-triazole-3,5-diamine], the EC50 in assay [1] was 0.991 µM; in assay [2], 17.2 µM.

For the compound `Nc1nc(Nc2cc(Cl)c(-c3ccc(NC(=O)C4CCC(F)(F)CC4)cc3)c(Cl)c2)n[nH]1` [Compound 250, 4,4-Difluorocyclohexanecarboxylic acid [4′-(5-amino-1H-[1,2,4]triazol-3-ylamino)-2′,6′-dichloro-biphenyl-4-yl]-amide], the half-maximal effective concentration (EC50) in assay [1] is 0.013 µM; in assay [2] it was 14 µM.

On to `CC(C)C(=O)Nc1ccc(-c2c(Cl)cc(Nc3n[nH]c(N)n3)cc2Cl)cc1` [Compound 251, N-[4′-(5-amino-1H-[1,2,4]triazol-3-ylamino)-2′,6′-dichloro-biphenyl-4-yl]-isobutyramide], for which the EC50 was 0.041 µM in assay [1] and 32.5 µM in assay [2].

Consider `CC(C)C(=O)Nc1cccc(-c2c(Cl)cc(Nc3n[nH]c(N)n3)cc2Cl)c1` [Compound 252, N-[4′-(5-amino-1H-[1,2,4]triazol-3-ylamino)-2′,6′-dichloro-biphenyl-3-yl]-isobutyramide], for which the results for the EC50 in assay [1] and in assay [2] were 0.067 µM and above 10 µM, respectively.

As for `Nc1nc(Nc2cc(Cl)c(-c3ccc(S(N)(=O)=O)cc3)c(Cl)c2)n[nH]1` [Compound 253], the EC50 in assay [1] worked out at 0.026 µM; in assay [2], 0.6 µM.

Turning to `Nc1nc(Nc2cc(Cl)c(-c3ccc4[nH]c(=O)[nH]c4c3)c(Cl)c2)n[nH]1` [Compound 255], the EC50 was 0.42 µM in assay [1] and above 10 µM in assay [2].

For the compound `Nc1nc(Nc2cc(Cl)c(-c3ccc4c(c3)NC(=O)C4)c(Cl)c2)n[nH]1` [Compound 256], the EC50 in assay [1] was found to be 0.594 µM; in assay [2], 8.69 µM.

As to `Nc1nc(Nc2cc(Cl)c(-c3ccc4[nH]ncc4c3)c(Cl)c2)n[nH]1` [Compound 257, N-3-[3′,5′-dichlorophenyl-4′-(1H-indazol-5-yl)-phenyl]-1H-[1,2,4]triazole-3,5-diamine], the EC50 stood at 0.343 µM in assay [1] and 2.73 µM in assay [2].

On to `Nc1nc(Nc2ccc(-c3c(Cl)cccc3Cl)cc2)n[nH]1` [Compound 258], for which the EC50 stood at 20.2 µM in assay [1] and 26.2 µM in assay [2].

On to `Nc1n[nH]c(Nc2cc(Cl)c(-c3ccc(OC4CCCNC4)cc3)c(Cl)c2)n1` (stereo not shown) [Compound 259], for which the EC50 in assay [1] was 0.089 µM; in assay [2] it was 4.27 µM.

`CC(C)(C)OC(=O)N1CC(COc2ccc(-c3c(Cl)cc(Nc4n[nH]c(N)n4)cc3Cl)cc2)C1` [Compound 260, 3-[4′-(5-Amino-1H-[1,2,4]triazol-3-ylamino)-2′,6′-dichloro-biphenyl-4-yloxymethyl]-azetidine-1-carboxylic acid tert-butyl ester]: the EC50 in assay [1] came to 0.022 µM; in assay [2], 17.5 µM.

As to `CN(CCOc1ccc(-c2c(Cl)cc(Nc3n[nH]c(N)n3)cc2Cl)cc1)C(=O)OC(C)(C)C` [Compound 261, {2-[4′-(5-Amino-1H-[1,2,4]triazol-3-ylamino)-2′,6′-dichloro-biphenyl-4-yloxy]-ethyl}-methyl-carbamic acid tert-butyl ester], the EC50 in assay [1] was 0.033 µM; in assay [2], 4.26 µM.

Take `Nc1nc(Nc2cc(Cl)c(-c3ccc(OC4CCNCC4)cc3)c(Cl)c2)n[nH]1` [Compound 262, N*3*-[2,6-Dichloro-4′-(piperidin-4-yloxy)-biphenyl-4-yl]-1H-[1,2,4]triazole-3,5-diamine]: the EC50 in assay [1] is 0.05 µM; in assay [2] it was 4.87 µM.

For the compound `CNCCOc1ccc(-c2c(Cl)cc(Nc3n[nH]c(N)n3)cc2Cl)cc1` [Compound 263, N*3*-[2,6-Dichloro-4′-(2-methylamino-ethoxy)-biphenyl-4-yl]-1H-[1,2,4]triazole-3,5-diamine], the EC50 was 0.059 µM in assay [1] and 3.75 µM in assay [2].

Regarding `Nc1nc(Nc2cc(Cl)c(-c3ccc(OCCC4CCCN4)cc3)c(Cl)c2)n[nH]1` (stereo not shown) [Compound 264, N*3*-[2,6-Dichloro-4′-(2-pyrrolidin-2-yl-ethoxy)-biphenyl-4-yl]-1H-[1,2,4]triazole-3,5-diamine], the results for the EC50 in assay [1] and in assay [2] were 0.048 µM and 6.5 µM, respectively.

With `CC(C)(C)OC(=O)N1CCCC1CCOc1ccc(-c2c(Cl)cc(Nc3n[nH]c(N)n3)cc2Cl)cc1` (stereo not shown) [Compound 266, 2-{2-[4′-(5-Amino-1H-[1,2,4]triazol-3-ylamino)-2′,6′-dichloro-biphenyl-4-yloxy]-ethyl}-pyrrolidine-1-carboxylic acid tert-butyl ester], the figures for the EC50 in assay [1] and in assay [2] were 0.103 µM and above 10 µM, respectively.

For the compound `CC(C)(C)OC(=O)N1CCC[C@@H]1COc1ccc(-c2c(Cl)cc(Nc3n[nH]c(N)n3)cc2C(F)(F)F)cc1` [Compound 267, (R)-2-[4′-(5-Amino-1H-[1,2,4]triazol-3-ylamino)-2′-chloro-6′-trifluoromethyl-biphenyl-4-yloxymethyl]-pyrrolidine-1-carboxylic acid tert-butyl ester], the figures for the EC50 in assay [1] and in assay [2] were 0.048 µM and 9.62 µM, respectively.

As to `CC(C)(C)OC(=O)N1CCC(Oc2ccc(-c3c(Cl)cc(Nc4n[nH]c(N)n4)cc3Cl)cc2)CC1` [Compound 268, 4-[4′-(5-Amino-1H-[1,2,4]triazol-3-ylamino)-2′,6′-dichloro-biphenyl-4-yloxy]-piperidine-1-carboxylic acid tert-butyl ester], the values for the EC50 in assay [1] and in assay [2] were 0.17 µM and above 10 µM, respectively.

Regarding `CN(C)CCOc1ccc(-c2c(Cl)cc(Nc3n[nH]c(N)n3)cc2Cl)cc1` [Compound 269, N*3*-[2,6-Dichloro-4′-(2-dimethylamino-ethoxy)-biphenyl-4-yl]-1H-[1,2,4]triazole-3,5-diamine], the EC50 was found to be 0.122 µM in assay [1] and 6.09 µM in assay [2].

Take `Nc1nc(Nc2cc(Cl)c(-c3ccc(OC[C@@H]4CCCN4)cc3)c(C(F)(F)F)c2)n[nH]1` [Compound 270, N*3*-[6-Chloro-4′-((S)-1-pyrrolidin-2-ylmethoxy)-2-trifluoromethyl-biphenyl-4-yl]-1H-[1,2,4]triazole-3,5-diamine]: the EC50 came to 0.117 µM in assay [1] and 33.3 µM in assay [2].

Turning to `Nc1nc(Nc2cc(Cl)c(-c3ccc(O[C@H]4CCNC4)cc3)c(Cl)c2)n[nH]1` [Compound 271, N*3*-[2,6-Dichloro-4′-((S)-pyrrolidin-3-yloxy)-biphenyl-4-yl]-1H-[1,2,4]triazole-3,5-diamine], the EC50 in assay [1] is 0.12 µM; in assay [2], 4.39 µM.
